# What was measured:
# [1] = system: L1210 leukemia; conditions: in words, literature; cited from earlier work
# [2] = Basic pKa measured spectrophotometrically; type: physicochemical; conditions: 20% aqueous dimethylformamide, spectrophotometric; read-out: pK (basic pKa)
# [3] = system: calf thymus DNA; assay: Drug-DNA binding, calf thymus DNA (CT)
# From the text: (§1) CT, AT and GC=are relative, inverse measures of compound--DNA binding for calf thymus DNA (CT); poly.dAT (AT) and poly. dGC (GC). (B. C. Baguley and E. M. Falkenhaugh, Nucleic Acids Res., 5, 161-171 (1978), B. F. Cain, B. C. Baguley and W. A. Denny, J. Med. Chem., 21, 658-668 (1978)).
# [4] = system: Ames bacterial tester strains TA98, TA100, TA1537; type: cell-based
# From the text: As clinical cancer chemotherapy improves, and patients live symptom free for longer intervals, it is obviously important that the agents employed are not carcinogenic and capable of disease re-induction.
# [5] = system: L1210 leukemia (ip); assay: Antileukemic screen, L1210 tumour ip, drug ip qd 1-5; type: in vivo, mice (C3H/DBA2 F1 hybrids); set-up: LD10 / D40 (drug dose necessary to provide 40% ILS): unit not given here; conditions: for ILS Observed: L1210-ip, qd 1-5, Table III; for ILS (increase in life span at the LD10) / LD10 / D40 (drug dose necessary to provide 40% ILS): Tumour L1210-ip, Table II; for ILS (increase in life span at the LD10): Strain F1, Schedule qd 1-5, at LD10; for LD10: Strain F1, Schedule qd 1-5, drug ip; for D40 (drug dose necessary to provide 40% ILS): Strain F1, Schedule qd 1-5; for Antitumour activity in leukemic animals / Dose potency: in words
# From the text: (§2) In initial screening a standard drug administration schedule has been employed (ip, qd 1-5) and mice (C3 H/DBA2 F1 hybrids) bred in the laboratory, receive a standard tumor inoculum of 10^5 L1210 cells ip on day 0. After range finding experiments, an LD10 dose has then been derived employing doses separated by 0.05 log.dose units, an acceptable soluble drug formulation (B. F. Cain, R. N. Seelye and G. J. Atwell, J. Med. Chem., 17, 922-930 (1974)) and groups of six tumored mice at each dose level. Deaths occuring before day 8 have been taken as resulting from drug toxicity. From the linear regression relating percent probit-mortality and the logarithms of the corresponding doses, an LD10 value has been derived. Profiles of antileukemic activity have been obtained employing doses separated by 0.09 log.dose intervals. Significant percentage increases in life span of leukemic animals, obtained at and below the LD10 dose, have been linearly correlated with the logarithms of the corresponding doses. The increase in life span (ILS) specified by the life extension-log.dose regression line at the measured LD10 provides a representative measure of antileukemic effectiveness at a standard host load in toxicity (W. A. Denny and B. F. Cain, J. Med. Chem., 21, 430-437 (1978)). For congener selection ILS has been employed as a measure of factor (1) above and LD10 for factor (2). Desirable drug pharmacokinetic properties (factor (3)) have been screened for by employing standard ip drug administration and implanting tumor more remotely; either subcutaneously (sc) or intracerabrally (ic) (B. F. Cain and G. J. Atwell Europ J. Cancer, 10, 539 549 (1974), B. F. Cain and G. J. Atwell, J. Med. Chem., 19 1409-1416 (1976)).
# (§3) ILS and LD10=as defined above.
# (§4) D40=the drug dose necessary to provide 40% ILS in standard L1210 assays.
# [6] = system: L1210 leukemia (sc); assay: Antileukemic screen, L1210 tumour sc, drug ip qd 1-5; type: in vivo, mice (C3H/DBA2 F1 hybrids); set-up: LD10 / D40 (drug dose necessary to provide 40% ILS): unit not given here; conditions: for ILS (increase in life span at the LD10): Strain F1, Schedule qd 1-5, at LD10, Table II; for LD10: Strain F1, Schedule qd 1-5, drug ip, Table II; for D40 (drug dose necessary to provide 40% ILS): Strain F1, Schedule qd 1-5, Table II
# From the text: as §2, §3, §4
# [7] = system: L1210 leukemia (ic); assay: Intracerebrally implanted L1210; type: in vivo, mice; conditions: in words
# From the text: as §2
# [8] = system: poly.dAT; assay: Drug-DNA binding, poly.dAT (AT)
# From the text: as §1
# [9] = Water solubility / ease of formulation; type: physicochemical; conditions: in words
# [10] = system: poly. dGC; assay: Drug-DNA binding, poly.dGC (GC)
# From the text: as §1
# [11] = Lipophilic-hydrophilic balance by reversed phase chromatography; type: physicochemical; conditions: linearly related to 1-octanol/H2O partition coefficients
# From the text: Rm =a measure of the compound's lipophilichydrophilic balance from reversed phase chromatography. Rm is linearly related to partition coefficients obtained in the 1-octanol/H2 O system.
# [12] = system: TA1537 strain of Salmonella typhimurium; assay: Mutagenicity assay in TA1537 strain; conditions: for Mutagenicity D50: Salmonella typhimurium TA1537; for Mutagenicity M50 (percentage mutation frequency at the D50 (×10^4)): Salmonella typhimurium TA1537, at the D50
# From the text: The quantitative measures of mutagenicity employed in the present studies are those detailed in L. R. Ferguson and W. A. Denny, J. Med. Chem., 22, 251-255 (1979) of early QSAR developed in this area.
# D50 and M50=quantitative measures derived from mutagenicity assays in TA1537 strain of Salmonella typhimurium, defined in L. R. Ferguson and W. A. Denny, J. Med. Chem., 22, 251-255 (1979). (The values of M50 are percentage mutation frequencies at the D50 (×10^4).)
# [13] = system: experimental tumour systems; conditions: in words, literature; cited from earlier work
Structure (SMILES),Antitumour activity in L1210 leukemia [1],pKa [2],"CT (relative, inverse measure of compound-DNA binding) [3]",Direct mutagenicity [4],ILS Observed [5],ILS (increase in life span at the LD10) [5],LD10 [5],D40 (drug dose necessary to provide 40% ILS) [5],Antitumour activity in leukemic animals [5],Dose potency [5],ILS (increase in life span at the LD10) [6],LD10 [6],Inhibition of intra-cerebrally implanted L1210 [7],"AT (relative, inverse measure of compound-DNA binding) [8]",Ease of formulation [9],"GC (relative, inverse measure of compound-DNA binding) [10]",Rm (reversed-phase chromatographic lipophilicity) [11],Mutagenicity D50 [12],Mutagenicity M50 (percentage mutation frequency at the D50 (×10^4)) [12],D40 (drug dose necessary to provide 40% ILS) [6],other results
"CS(=O)(=O)Nc1ccc(Nc2c3ccccc3nc3ccccc23)cc1 [AMSA, 4'-(9-acridinylamino) methanesulfonanilide]",high antitumour activity,,,,,,,,,,,,,,,,,,,,
CNC(=O)c1cccc2c(Nc3ccc(NS(C)(=O)=O)cc3OC)c3ccc(C)cc3nc12 [Compound 1],,6.6,5.53,lack significant mutagenic activity,200%,200%,12,3,unusually high antitumour activity in leukemic animals,good dose potency,30%,10,inhibit intra-cerebrally implanted L1210,4.74,easily formulable,2.76,0.32,15.3,1.0 % (×10^4),,Antitumour activity in leukemic animals ([5]; listed as 3-methyl-5-methylcarboxamido): high experimental antitumor activity
COc1cc(NS(C)(=O)=O)ccc1Nc1c2ccc(C)cc2nc2c(C(=O)NCC(N)=O)cccc12 [Compound 2],,6.58,6.53,,200%,200%,120,10,unusually high antitumour activity in leukemic animals,,50%,120,,6.53,,1.84,-0.32,27.6,0 % (×10^4),60,
COc1cc(NS(C)(=O)=O)ccc1Nc1c2ccc(Cl)cc2nc2c(C(=O)NCC(N)=O)cccc12 [Compound 3],,5.71,,,120%,120%,300,25,,,65%,330,,,,4.91,-0.23,12.4,0 % (×10^4),175,
CNC(=O)c1ccc2c(Nc3ccc(NS(C)(=O)=O)cc3OC)c3cccc(C)c3nc2c1 [Compound 4],,6.64,,lack significant mutagenic activity,150%,150%,20,1,,good dose potency,100%,25,inhibit intra-cerebrally implanted L1210,3.2,easily formulable,,-0.17,43.8,0.16 % (×10^4),15,Antitumour activity in leukemic animals ([5]; listed as 5-methyl-3-methylcarboxamido): high experimental antitumor activity
"COc1cc(NS(C)(=O)=O)ccc1Nc1c2ccccc2nc2ccccc12 [m-AMSA, 4'-(9-acridinylamino)-methanesulfon-m-anisidide]",highly effective in treating L1210 leukemia,,,,,111%,9,2.5,,,45%,10,does not,,,,,,,8.0,Activity in other experimental tumour systems [13]: has shown promise in a number of other experimental tumour systems

# Reference: patent US4472582A, “3,5-Disubstituted-4'-(9-acridinylamino)-methane-sulfon-m-anisidide compounds having antitumor properties” (Development Finance Corporation of New Zealand, priority 1979, dated 1984)
